These results are taken from ChEMBL document CHEMBL1136153, “2-oxoglutarate analogue inhibitors of HIF prolyl hydroxylase” (Bioorg Med Chem Lett, 2003).

The nature of the test: Inhibitory concentration against oxoglutarate oxygenase was determined.

As usually defined, the IC50 is the concentration needed to halve the response being measured. A higher IC50 goes with a need for much substance. For the compound `O=C(O)CCC(S)C(=O)O` (stereo unspecified), it took 120 µM to reach half-maximal inhibition (IC50).
